Experimental data from patent US6946475B1, “Anticancer calcium channel blockers” (University of Virginia Patent Foundation, priority 1999, dated 2005).

Tests used:
[1] = system: HT-29 (colon cancer cell); test: Measurement of cellular proliferation, HT-29 cells; type: cell-based; settings: HT-29, 48 hours
Description: (§1) Measurement of cellular proliferation: LNCaP cells at 2.5×10^4/well or PC3 cells at 5×10^4/well, both in a final volume of 100 μl, were plated in triplicate in standard flat bottom 96 well tissue culture plates in the presence of drug or vehicle (DMSO). Unless otherwise indicated, cells were grown for 48 hours at 37° C. in a CO2 incubator. Relative cell growth was determined with the CellTiter 96 aqueous cell proliferation assay (Promega, Madison, Wis.) as described by the manufacturer using an automated plate reader. Results were calculated in a blinded fashion and are means of triplicate determinations.
(§2) For the 48 hour proliferation, cells were cultured with calcium channel antagonists or without calcium channel antagonists. The IC50 values of the calcium channel antagonists were determined.
(§3) Using the measurement cell proliferation assay described hereinabove, the cell lines Jurkat, LNCap (prostate cancer cell), PC-31 (prostate cancer cell), DU145 (prostate cancer cell), MDA-468 (breast cancer cell), MDA-36 (Breast cancer cell), MCF-7 (breast cancer cell), MIA PaCa-2 (pancreatic cancer cell), Hep G2 (liver cancer cell), A549 (non-small cell lung cancer cells), NCI H460 (non-small cell lung cancer cells), HT-29 (colon cancer cell), HCT-116 (colon cancer cell) and SK OV-3 (ovarian cancer cell) were cultured in the presence of TH-1177, TH-1205, TH-1201, TH-2109, TH-2029, TH-2043, TN-2085 and TH-2279.

[2] = system: MCF-7 (breast cancer cell); test: Measurement of cellular proliferation, MCF-7 cells; type: cell-based; settings: MCF-7, 48 hours
Description: as §1, §2, §3

[3] = system: Hep G2 (liver cancer cell); test: Measurement of cellular proliferation, Hep G2 cells; type: cell-based; settings: Hep G2, 48 hours
Description: as §1, §2, §3

[4] = system: SK OV-3 (ovarian cancer cell); test: Measurement of cellular proliferation, SK OV-3 cells; type: cell-based; settings: SK-OV-3, 48 hours
Description: as §1, §2, §3

Ca2+ entry in PC3 cells = test: Measurement of intracellular Ca2+ concentration (Ca2+ entry), PC3 cells; type: cell-based, human
Description: Cells were incubated in growth media containing 1 μM of the acetoxy-methyl ester of the Ca^2+-sensitive fluorescent dye indo-1 (indo-1/AM, Molecular Probes, Eugene, Oreg.) for 1 hour at 37° C. Cells were washed three times in buffer A (10 mM HEPES, pH 7.4, 1 mM MgCl2, 3 mM KCl, 1 mM CaCl2, 140 mM NaCl, 0.1% glucose, 1% fetal bovine serum) and suspended to a final concentration of 10^6/ml. Prior to stimulation, cells were warmed to 37° C. Prior to stimulation, cells were also incubated with drug, calcium channel antagonists and the IC50 values were determined. Changes in [Ca^2+] were monitored in an SLM 8100C spectrofluorometer (SLM/Aminco, Urbana, Ill.) using previously published methods, Haverstick, et al. (1998) Cell Calcium, 23: 361-368; Densmore, et al. (1996) Am. J. Physiol., 271:C1494-1503, incorporated herein by reference.
Calcium influx into the cell is suitably stimulated using either (1) a physiological ligand or (2) an endoplasmic reticulum (ER) ATPase inhibitor. Preferably, a physiological ligand is used to stimulate calcium influx into the cell.
Ir. the experiment depicted in FIG. 4A, TH-1177 was added before the cells were stimulated with ATP. […] By 70 s after ATP addition, release of Ca^2+ from the internal storage pool was largely over (for example, see FIG. 5 below) and the maintenance of elevations of [Ca^2+]i over baseline was dependent on Ca entry from the extracellular compartment. […] Therefore, TH-1177 interacts with the Ca^2+ influx pathway.
The efficiency of TH-1177 at blocking Ca^2+ entry was assessed by comparison to the effect of chelation of extracellular Ca^2+ with EGTA, which was considered 100% inhibition of Ca^2+ entry.
The data presented above provide that TH-1177 inhibited the stimulated increase in [Ca^2+]i by blockage of Ca^2+ entry. […] This increase represented release of Ca^2+ from the internal storage pool. Addition of TH-1177 had no effect on the size of this change in [Ca^2+]i. […]

Jurkat cells = test: Measurement of cellular proliferation, Jurkat cells; type: cell-based; settings: Jurkat, 48 hours; read-out: PROLIFERATION IC50 Jurkat
Description: as §1, §2, §3

[5] = target: T1, α1H subunit of a calcium channel of a human heart (Homo sapiens, UniProt O95180); test: Whole cell current recording, Xenopus oocytes transfected with α1H subunit; type: cell-based
T1 construct: expressed in transfected cells; host or cells: Xenopus oocytes (so in the source), pcDNA3 plasmid
From the text: Xenopus oocytes were transfected with the α1H subunit of a calcium channel of a human heart prepared in accordance with the procedure described by Cribbs, et al. in Circulation Research, 1998, 83, 103-109, the contents of which are incorporated by reference. The α1H plasmid was obtained by cloning the α1H sequence into the EcoRV-X baI site of the transfection vector pcDNA3, in accordance with the procedure described in the Cribbs, et al. article. Xenopus oocyte cells (1×10^5 per 35 mm dish) were transfected with 2 μg of alpha 1H-Tx plasmid. […] The internal pipette solution contained (mmol/L) CsCl 55, CS SO3 75, MgCl2 10, EGTA 0.1, and HEPES 10 (pH adjusted to 7.2 with (CsOH). Currents were recorded using an Axopatch 200A, a Digidata 1200 A/D converter and pCLAMP software (Axon Instruments, Inc.).
The current of the cell in the depolarized cell was recorded over time (control). Within a few minutes after the control plot was recorded, the cells were again depolarized, but this time, the bath contained in addition 10 μM TH-1177. The current was recorded for the same length of time as the control. The current was recorded at about zero pA. Then the cells in the bath containing 10 μM TH-1177 were depolarized again, but this time the bath medium containing TH-1177 was aspirated out and replaced with fresh calcium medium depolarizing medium and the current was measured.

[6] = Toxicity in SCID mice without tumors; type: in vivo; settings: 180 mg/kd/d
Description: Four SCID mice without tumors were given TH-1177 at a dose of 180 mg/kd/d.

T1 sequence (O95180 whole entry): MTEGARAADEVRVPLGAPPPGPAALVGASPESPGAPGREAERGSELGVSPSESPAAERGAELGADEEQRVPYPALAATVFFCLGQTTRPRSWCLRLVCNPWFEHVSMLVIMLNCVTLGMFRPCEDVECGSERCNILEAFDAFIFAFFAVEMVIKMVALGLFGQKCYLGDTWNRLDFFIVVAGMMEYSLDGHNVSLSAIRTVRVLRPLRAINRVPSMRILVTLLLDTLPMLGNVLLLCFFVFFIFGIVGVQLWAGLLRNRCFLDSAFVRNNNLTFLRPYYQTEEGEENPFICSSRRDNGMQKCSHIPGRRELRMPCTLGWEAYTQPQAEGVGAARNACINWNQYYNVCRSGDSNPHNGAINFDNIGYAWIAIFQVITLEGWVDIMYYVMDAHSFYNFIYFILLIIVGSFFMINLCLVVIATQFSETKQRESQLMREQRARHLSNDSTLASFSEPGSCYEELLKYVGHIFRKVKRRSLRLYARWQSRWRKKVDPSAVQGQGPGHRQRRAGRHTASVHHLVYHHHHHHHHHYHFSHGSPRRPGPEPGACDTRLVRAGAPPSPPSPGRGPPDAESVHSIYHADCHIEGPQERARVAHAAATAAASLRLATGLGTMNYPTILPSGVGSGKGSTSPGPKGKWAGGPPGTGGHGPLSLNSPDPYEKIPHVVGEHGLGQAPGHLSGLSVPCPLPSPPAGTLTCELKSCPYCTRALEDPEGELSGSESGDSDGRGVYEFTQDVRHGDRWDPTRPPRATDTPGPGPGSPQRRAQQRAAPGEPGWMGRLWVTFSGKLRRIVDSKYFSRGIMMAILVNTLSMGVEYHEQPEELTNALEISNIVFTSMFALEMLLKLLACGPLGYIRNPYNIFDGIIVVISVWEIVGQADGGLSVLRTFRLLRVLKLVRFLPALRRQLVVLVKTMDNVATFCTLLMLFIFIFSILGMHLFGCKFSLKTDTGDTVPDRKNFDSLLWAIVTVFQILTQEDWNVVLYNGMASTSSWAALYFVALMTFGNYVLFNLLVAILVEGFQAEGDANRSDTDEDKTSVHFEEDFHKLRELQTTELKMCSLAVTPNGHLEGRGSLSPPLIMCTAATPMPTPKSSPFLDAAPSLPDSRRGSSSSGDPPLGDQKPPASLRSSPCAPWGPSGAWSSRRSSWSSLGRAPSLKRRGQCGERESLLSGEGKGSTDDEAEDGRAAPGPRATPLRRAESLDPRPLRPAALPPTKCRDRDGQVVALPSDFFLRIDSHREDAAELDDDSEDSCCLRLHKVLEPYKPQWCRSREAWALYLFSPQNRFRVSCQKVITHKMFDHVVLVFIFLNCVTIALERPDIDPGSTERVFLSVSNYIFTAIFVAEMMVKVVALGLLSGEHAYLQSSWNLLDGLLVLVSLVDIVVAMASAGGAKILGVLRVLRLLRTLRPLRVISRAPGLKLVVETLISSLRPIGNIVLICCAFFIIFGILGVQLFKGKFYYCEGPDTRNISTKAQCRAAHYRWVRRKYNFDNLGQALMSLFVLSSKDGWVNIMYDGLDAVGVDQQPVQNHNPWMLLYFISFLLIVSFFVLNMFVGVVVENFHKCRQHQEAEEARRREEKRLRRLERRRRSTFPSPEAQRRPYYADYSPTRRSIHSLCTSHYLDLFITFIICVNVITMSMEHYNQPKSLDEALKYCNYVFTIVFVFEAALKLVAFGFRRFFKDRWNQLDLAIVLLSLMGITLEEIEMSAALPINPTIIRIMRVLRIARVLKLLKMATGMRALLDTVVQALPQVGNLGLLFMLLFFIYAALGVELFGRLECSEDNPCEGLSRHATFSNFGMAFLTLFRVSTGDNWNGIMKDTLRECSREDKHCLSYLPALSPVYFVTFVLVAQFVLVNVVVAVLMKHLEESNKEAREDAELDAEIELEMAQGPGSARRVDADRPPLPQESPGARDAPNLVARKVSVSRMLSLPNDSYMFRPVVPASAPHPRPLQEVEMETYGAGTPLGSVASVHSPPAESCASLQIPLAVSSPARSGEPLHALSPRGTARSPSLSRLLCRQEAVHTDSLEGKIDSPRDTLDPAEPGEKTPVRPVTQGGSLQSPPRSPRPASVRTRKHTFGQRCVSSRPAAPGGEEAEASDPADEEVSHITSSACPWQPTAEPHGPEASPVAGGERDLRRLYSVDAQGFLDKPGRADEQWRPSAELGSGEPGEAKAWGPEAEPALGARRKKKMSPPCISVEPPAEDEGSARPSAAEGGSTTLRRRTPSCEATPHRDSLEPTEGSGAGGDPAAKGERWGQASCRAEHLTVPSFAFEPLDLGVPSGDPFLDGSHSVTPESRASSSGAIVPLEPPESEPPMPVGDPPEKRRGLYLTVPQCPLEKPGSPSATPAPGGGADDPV

IC50 [1]: ~100 µM
IC50 [2]: 21 µM
IC50 [3]: 32 µM
IC50 [4]: 25 µM
IC50 (Ca2+ entry in PC3 cells; EGTA chelation of extracellular Ca2+ considered 100% inhibition, read-out: IC50 for blocking Ca2+ entry, PC3 cells): 16 µM
IC50 (Jurkat cells): 8 µM
Current in depolarized α1H-transfected cells ([5]; 10 μM TH-1177 in bath): about zero
Ability of calcium to cross the cell membrane ([5]; α1H-transfected Xenopus oocytes, 10 μM, restored on washout): inhibits
SMILES: COc1ccc(CCN2CCC[C@H]2COC(c2ccccc2)c2ccc(Cl)cc2)cc1 (stereo partly drawn) [TH-1177]
Effect on increase in [Ca2+]i stimulated by ATP (Ca2+ entry in PC3 cells; PC3, 1 mM ATP, drug added before): concentration dependent inhibition
Effect on release of Ca2+ from the internal storage pool (Ca2+ entry in PC3 cells; PC3, EGTA in medium, 1 mM ATP): no effect
Gross findings at necropsy [6]: no gross abnormalities
Histological examination of kidney, adrenal gland, heart and liver [6]: within normal limits
